From patent publication US20220332758A1, “PEPTIDE-BASED COMPOSITIONS AND METHODS FOR TREATING ALZHEIMER'S DISEASE” (Board of Regents, The Universityof Texas System, priority 2019, published 2022)
Entries after “also recorded” stand apart in the source; their conditions may differ.

Legend:
[1] = target: T1, latent 20S core proteasome, PGPH peptidase (Homo sapiens, UniProt P25787+P60900); assay: Post glutamyl peptide hydrolyzing (PGPH) peptidase activity of the core proteasome; format: biochemical
T1 construct: purified from erythrocytes; purchased Boston Biochem, Inc. or Enzo Life Sciences, Inc; host or cells: human erythrocytes
Description: (§1) Determination of Proteasome Activity. Human housekeeping core (20S) proteasome purified from erythrocytes was purchased from Boston Biochem, Inc. (Cambridge, Mass.) or from Enzo Life Sciences, Inc. (Farmingdale, N.Y.). Multiple batches of the proteasomes were used and performed reproducibly. The stock proteasome was diluted to 0.2 mg/mL working solution in “dilution buffer” (50 mM Tris/HCl, pH 8, 20% glycerol). The following model peptide substrates, releasing fluorescent 7-amino-4-methylcoumarin (AMC) reporter group after cleavage, were used: succinyl-LeuLeuValTyr-AMC (SEQ ID NO: 14) (for the ChT-L peptidase; SucLLVY-AMC; Bachem Bioscience Inc., Philadelphia, Pa.), butoxycarbonyl-LeuArgArg-AMC (T-L; Bachem Bioscience Inc., Philadelphia, Pa.) and carbobenzoxy-LeuLeuGlu-AMC (PGPH; Enzo Life Sciences Inc., Farmingdale, N.Y.). […] After mixing, the plate was transferred to a Fluoroskan Ascent plate reader (Thermo Fisher Scientific Inc., Waltham, Mass.) for 1 h (37° C.), with fluorescence readouts once per minute. […] The reaction rates were calculated from a linear segment of kinetic curves constructed from measurements in 1-min intervals. Reaction rates were calculated using a linear fit performed with the Slope Analyser and Enzyme Kinetics applications launched within Origin Pro 2019 (OriginLab Corporation, Northampton, Mass.). […]

human 26S proteasome = target: T2, human 26S proteasome (Homo sapiens, UniProt P25787+P60900); assay: Chymotrypsin-like activity of purified human 26S proteasome, Suc-LLVY-MCA substrate; format: biochemical; settings: in vitro
T2 construct: purchased Boston Biochemicals (Boston Biochem)

[2] = system: elav-GS-Gal4>UAS-APP, UAS-Bace1 flies; assay: Spontaneous activity in fly AD model; format: in vivo, Drosophila melanogaster; settings: 1 μM in food
Description: Spontaneous activity and circadian rhythm. Spontaneous activity was monitored using a Trikinetic activity monitor, in which vials containing 20-25 flies were secured and activity recorded in a humidified 24° C. incubator with 12:12-hour light:dark cycles as described herein. Flies were allowed to acclimate for 8 hours prior to data collection. Activity was averaged for each twelve-hour cycle and normalized per fly.

[3] = target: T3, latent 20S core proteasome, T-L peptidase (Homo sapiens, UniProt P25787+P60900); assay: Trypsin-like (T-L) peptidase activity of the core proteasome; format: biochemical
T3 construct: purified from erythrocytes; purchased Boston Biochem, Inc. or Enzo Life Sciences, Inc; host or cells: human erythrocytes
Description: as §1

[4] = target: T4, proteasome activity in W^1118 flies (Drosophila melanogaster, UniProt P40301+Q9XZJ4); assay: Proteasome activity in flies fed the compounds; format: in vivo; settings: fed for 10 days
T4 construct: from tissue
Description: Fly Lines and Strain Maintenance. UAS-ProsBeta5 (Staudt, N. et al. PLoS Genet 1, e55, doi:10.1371/journal.pgen.0010055 (2005)) and Elav-GS-GAL4; UAS-hAPP; UAS-hBACE1 (56756) stocks were obtained from the Bloomington Drosophila Stock Center (NIH P40OD018537). The lines were maintained on agar-cornmeal-dextrose-yeast growth media (Ren, C., Finkel, S. E. & Tower, J. Exp Gerontol 44, 228-235, doi:10.1016/j.exger.2008.10.002 (2009)) in a humidified 24° C. incubator with 12:12-hour light:dark cycle. The crosses were set up with female virgins of the respective GAL4 driver line and male UAS-ProsBeta5 or W^1118 flies. Progeny were collected within 48 hours of eclosion and allowed to mate on 10% sugar/yeast (SY10) media (Skorupa, D. A., et al. Aging Cell 7, 478-490, doi:10.1111/j.1474-9726.2008.00400.x (2008)) for another 48 hours. After this period, females were separated and sorted into sets of 25 flies per vial containing SY10 media supplemented either with 400 μM mifepristone (RU486) or ethanol vehicle, mixed directly into the food. 8 μM Blue Dye #1 was added to food containing RU486 for the purpose of identification. Carbon dioxide was used to briefly anesthetize flies for sorting. Flies were moved to vials of fresh media every two to three days.
Plate-based proteasome activity assay. […]

T4 sequence (Q9XZJ4 whole entry): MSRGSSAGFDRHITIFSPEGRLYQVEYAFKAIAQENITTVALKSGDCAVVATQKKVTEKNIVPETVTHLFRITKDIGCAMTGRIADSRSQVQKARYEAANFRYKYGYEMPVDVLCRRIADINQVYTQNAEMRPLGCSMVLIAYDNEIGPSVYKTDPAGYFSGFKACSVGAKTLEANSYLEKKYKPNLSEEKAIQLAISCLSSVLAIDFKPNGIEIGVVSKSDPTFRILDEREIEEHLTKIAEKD
T4 sequence (P40301 whole entry): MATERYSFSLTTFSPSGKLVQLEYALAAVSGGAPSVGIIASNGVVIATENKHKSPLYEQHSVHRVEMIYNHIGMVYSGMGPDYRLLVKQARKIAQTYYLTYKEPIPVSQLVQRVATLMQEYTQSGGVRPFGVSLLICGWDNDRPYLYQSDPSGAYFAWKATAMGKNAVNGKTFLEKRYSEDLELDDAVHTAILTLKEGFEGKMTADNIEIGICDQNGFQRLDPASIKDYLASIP

Row | SMILES | effect on PGPH activity [1] | activation of 26S proteasome (in words) (human 26S proteasome) | spontaneous activity [2] | effect on trypsin-like (T-L) activity [3] | proteasome activity in flies [4]
1 | N=C(N)NCCCC(NC(=O)CN)C(=O)NC(CCCCN)C(=O)NC(CCCCN)C(=O)NC(CCCNC(=N)N)C(=O)NC(CCCNC(=N)N)C(=O)NC(CCC(N)=O)C(=O)N1Cc2ccccc2C[C@H]1C(=O)N1C(C(=O)NC(CCCNC(N)N)C(=O)N2CCCC2C(=O)NC(CO)C(=O)O)CC2CCCCC21 (stereo partly shown) [(5), GRKKRRQ-TOD-RPS] | weak inhibitory effects; also recorded: did not seem to significantly affect | strongly activate | increased spontaneous activity | weak inhibitory effects; also recorded: did not seem to significantly affect | enhance proteasome activity when fed to flies
2 | NCCCCC(N)C(=O)NC(CCCCN)C(=O)NC(CCCCN)C(=O)Nc1cc(NC(=O)C(CCCCN)NC(=O)C(CCCCN)NC(=O)C(N)CCCCN)cc(C(=O)NC(CCCCN)C(=O)NC(CCCCN)C(=O)NC(CCCCN)C(=O)O)c1 (stereo not shown) [(8)] | weak inhibitory effects; also recorded: did not seem to significantly affect | excellent activator | increased spontaneous activity | weak inhibitory effects; also recorded: did not seem to significantly affect | enhance proteasome activity when fed to flies
